Test system: 186277-243-T-J2-PDC complex spheroids, viability
Test: Anticancer human tumor 186277-243-T-J2-PDC patient-derived colon adenocarcinoma cell line growth inhibition [RAS]
Details: for IC50: curve of first compound; for viability, T/C: stronger effect = lower value; active means viability on the fitted dose curve at most 10% of control; inactive means the rest
Procedure, shortened: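 Multi-cell-type spheroids: tumor cells plus HUVEC endothelial cells and mesenchymal stem cells. RAS-pathway inhibitors were combined with targeted agents, each dosed in half-log steps down from clinical Cmax, or from 10 microM when Cmax was unknown.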

[1] = second compound 0.000949 µM, first compound 0.0316 µM
[2] = second compound 0.000949 µM, first compound 0.1 µM
[3] = second compound 0.000949 µM, first compound 0.316 µM
[4] = second compound 0.000949 µM, first compound 1 µM
[5] = second compound 0.000949 µM, first compound 3.16 µM
[6] = second compound 0.000949 µM, first compound 10 µM
[7] = second compound 0.003 µM, first compound 0.0316 µM
[8] = second compound 0.003 µM, first compound 0.1 µM
[9] = second compound 0.003 µM, first compound 0.316 µM
[10] = second compound 0.003 µM, first compound 1 µM
[11] = second compound 0.003 µM, first compound 3.16 µM
[12] = second compound 0.003 µM, first compound 10 µM
[13] = second compound 0.00949 µM, first compound 0.0316 µM
[14] = second compound 0.00949 µM, first compound 0.1 µM
[15] = second compound 0.00949 µM, first compound 0.316 µM
[16] = second compound 0.00949 µM, first compound 1 µM
[17] = second compound 0.00949 µM, first compound 3.16 µM
[18] = second compound 0.00949 µM, first compound 10 µM
[19] = second compound 0.03 µM, first compound 0.0316 µM
[20] = second compound 0.03 µM, first compound 0.1 µM
[21] = second compound 0.03 µM, first compound 0.316 µM
[22] = second compound 0.03 µM, first compound 1 µM
[23] = second compound 0.03 µM, first compound 3.16 µM
[24] = second compound 0.03 µM, first compound 10 µM
[25] = second compound 0.0949 µM, first compound 0.0316 µM
[26] = second compound 0.0949 µM, first compound 0.1 µM
[27] = second compound 0.0949 µM, first compound 0.316 µM
[28] = second compound 0.0949 µM, first compound 1 µM
[29] = second compound 0.0949 µM, first compound 3.16 µM
[30] = second compound 0.0949 µM, first compound 10 µM
[31] = second compound 0.3 µM, first compound 0.0316 µM
[32] = second compound 0.3 µM, first compound 0.1 µM
[33] = second compound 0.3 µM, first compound 0.316 µM
[34] = second compound 0.3 µM, first compound 1 µM
[35] = second compound 0.3 µM, first compound 3.16 µM
[36] = second compound 0.3 µM, first compound 10 µM
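Further: spheroids exposed to compounds for 7 days before viability read.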

Cc1nc(N2CCC3(CC2)COC(C)C3N)c(CO)nc1Sc1ccnc(N)c1Cl (centres undefined) + CCn1c(-c2cc(N3CCN(C)CC3)cnc2C(C)OC)c2c3cc(ccc31)-c1csc(n1)CC(NC(=O)C1CC1C)C(=O)N1CCCC(N1)C(=O)OCC(C)(C)C2
< 31.6 nM: IC50 (second compound 0.00949 µM) | IC50 (second compound 0.03 µM) | IC50 (second compound 0.0949 µM) | IC50 (second compound 0.3 µM)
active: viability, T/C [5] 9.66% | viability, T/C [6] 5.87% | viability, T/C [10] 8.06% | viability, T/C [11] 4.43% | viability, T/C [12] 2.87% | viability, T/C [15] 6.12% | viability, T/C [16] 4.02% | viability, T/C [17] 3.42% | viability, T/C [18] 2.67% | viability, T/C [19] 9.41% | viability, T/C [20] 7.94% | viability, T/C [21] 4.32% | viability, T/C [22] 3.62% | viability, T/C [23] 2.89% | viability, T/C [24] 2.28% | viability, T/C [25] 5.71% | viability, T/C [26] 4.9% | viability, T/C [27] 3.65% | viability, T/C [28] 3.26% | viability, T/C [29] 2.76% | viability, T/C [30] 1.95% | viability, T/C [31] 4.72% | viability, T/C [32] 4.35% | viability, T/C [33] 3.45% | viability, T/C [34] 3.1% | viability, T/C [35] 2.4% | viability, T/C [36] 1.92%
inactive: viability, T/C [1] 94.6% | viability, T/C [2] 110% | viability, T/C [3] 76.3% | viability, T/C [4] 30.1% | viability, T/C [7] 91.2% | viability, T/C [8] 58.7% | viability, T/C [9] 18.3% | viability, T/C [13] 27.1% | viability, T/C [14] 13.6%
128 nM: IC50 (second compound 0.003 µM)
616 nM: IC50 (second compound 0.000949 µM)

NC1c2ccccc2OC12CCN(c1cnc3c(N4CCCc5ncccc54)n[nH]c3n1)CC2 (centres undefined) + CCn1c(-c2cc(N3CCN(C)CC3)cnc2C(C)OC)c2c3cc(ccc31)-c1csc(n1)CC(NC(=O)C1CC1C)C(=O)N1CCCC(N1)C(=O)OCC(C)(C)C2
active: viability, T/C [3] 6.05% | viability, T/C [4] 3.49% | viability, T/C [5] 2.69% | viability, T/C [6] 2.5% | viability, T/C [8] 6.27% | viability, T/C [9] 3.3% | viability, T/C [10] 2.57% | viability, T/C [11] 2.3% | viability, T/C [12] 1.8% | viability, T/C [13] 7.02% | viability, T/C [14] 3.42% | viability, T/C [15] 2.63% | viability, T/C [16] 1.94% | viability, T/C [17] 1.79% | viability, T/C [18] 1.61% | viability, T/C [19] 3.98% | viability, T/C [20] 3.86% | viability, T/C [21] 2.26% | viability, T/C [22] 1.79% | viability, T/C [23] 3.5% | viability, T/C [24] 1.52% | viability, T/C [25] 3.58% | viability, T/C [26] 2.71% | viability, T/C [27] 2.03% | viability, T/C [28] 1.94% | viability, T/C [29] 1.81% | viability, T/C [30] 1.53% | viability, T/C [31] 3.17% | viability, T/C [32] 2.52% | viability, T/C [33] 1.83% | viability, T/C [34] 1.56% | viability, T/C [35] 1.77% | viability, T/C [36] 1.56%
inactive: viability, T/C [1] 70.1% | viability, T/C [2] 26.9% | viability, T/C [7] 25.1%
< 31.6 nM: IC50 (second compound 0.003 µM) | IC50 (second compound 0.00949 µM) | IC50 (second compound 0.03 µM) | IC50 (second compound 0.0949 µM) | IC50 (second compound 0.3 µM)
54.2 nM: IC50 (second compound 0.000949 µM)

Reference: PubChem BioAssay AID2060908 (Molecular Pharmacology Branch, DTP, NCI, 2025)
